# Measured values from patent publication US10695330B2, “Methods of treatment” (Global Blood Therapeutics, Inc., priority 2015, dated 2020).
# Molecular target: T1, Hb (Mus musculus, UniProt P01942)
# T1 construct: from tissue; host or cells: whole blood (red blood cells) of dosed C57BL / C57BL/6J mice
# Test: Bleomycin mouse model: PK/PD (blood and plasma concentrations, Hb occupancy, hemoximetry)
# Type: in vivo
# Details: bleomycin treated mice; for calculated Hb occupancy: 4 hours after last dose
# Description: Compound 1 (formulated in dimethylacetamide: polyethylene glycol 400 (PEG400): 40% cavitron at a 1:5:4 ratio) was administered at either low dose (first day 50 mg/kg followed by 40 mg/kg daily) or high dose (first day 150 mg/kg followed by 85 mg/kg daily) via oral gavage to bleomycin treated mice once daily from day 8 to day 15. Animals in group 1 were administered vehicle via oral gavage. The dosing volume was 200 μL. The study animals were sacrificed on day 15 at 4 hours post final dose.
# Samples for hemoximetry and pharmacokinetics (PK) were taken 4 hours following the last dose of the dosing regimen. BAL fluid was collected from the lungs of the animals by lavaging the lung with 1 ml Hanks balanced salt media (HBSS). Lungs were harvested from each animal and weighed. They were then inflated by ˜0.5 mL of 10% NBF and fixed in a formalin container for subsequent histopathological analysis.
# Compound 1 blood and plasma concentrations were determined by LC-MS 4 hours after the last dose. Both standard and QC blood samples were pre-incubated at 37° C. for 1 hr. After incubation, all standard and QC samples were diluted with 2-fold volume of water to match with the condition of samples. Plasma standard and QC were proceeding without pre-incubation. […] The peak area of m/z 341->203 product ion (Compound 1) was measured against that of the m/z 345->159 product ion 2-hydroxy-6-((2-(1-(propan-2-yl-d7)-1H-pyrazol-5-yl)pyridin-3-yl)methoxy)benzaldehyde in positive ion mode. […]
# Hemoglobin occupancy by Compound 1 was calculated by dividing the concentration of Compound 1 in RBCs by the Hb concentration in RBCs (5 mM). RBC was calculated from whole blood and plasma concentration data using the following equation: […]
# Hemoximetry measurements (PD analysis) were conducted in a Hemox Analyzer (TCS Scientific Corporation, New Hope, Pa.). […] The absorbance at wavelengths that correspond to the isosbestic point (570 nm) and deoxy Hb (560 nm) was recorded as a function of the sample O2 tension (pO2). […]
# T1 sequence (P01942 2-142 limits assumed): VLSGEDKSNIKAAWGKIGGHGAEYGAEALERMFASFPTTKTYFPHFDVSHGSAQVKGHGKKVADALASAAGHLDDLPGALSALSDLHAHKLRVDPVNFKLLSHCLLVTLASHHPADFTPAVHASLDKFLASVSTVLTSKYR
# T1 sequence (P02088 2-147 partner limits assumed): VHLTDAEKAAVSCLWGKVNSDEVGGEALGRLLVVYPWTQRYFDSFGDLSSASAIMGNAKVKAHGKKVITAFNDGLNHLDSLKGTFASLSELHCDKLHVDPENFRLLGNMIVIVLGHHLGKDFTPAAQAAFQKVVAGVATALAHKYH
compound,measurement,setting,value
"O=Cc1c(O)cccc1OC[C@@H]1CCCCN1C(=O)c1cccnc1 [Compound 1, (S)-2-hydroxy-6-((1-nicotinoylpiperidin-2-yl)methoxy)benzaldehyde]",calculated Hb occupancy,high dose regimen (150 then 85 mg/kg daily),36.7%
same,shift in the OEC (Hb-oxygen binding affinity),low and high dose,significant left shift in the OEC in a dose-response manner
same,calculated Hb occupancy,low dose regimen (50 then 40 mg/kg daily),18.0%
